Reference: patent publication US5093363A, “2,4,6-substituted phenol derivatives” (priority 1989, dated 1992)
pIC50: −log10 of the molar value.

Assays:
cholesterol synthesis = conditions: disclosed by Nakatani, Farmashia 1988; cited from earlier work
[1] = tested on: production of peroxidized lipids in a homogenate of rat brain; assay: Suppression of production of peroxidized lipids in a homogenate of rat brain (TBA method); format: biochemical, rat (SD strain); conditions: 37° C., 30 minutes
Description: [Suppression of production of peroxidized lipids in a homogenate of rat brain]
SD strain rats (body weight, about 200 g) were sacrificed by cutting down their heads, and the brains were taken out. The brains were homogenated with a 4-fold amount of 0.05 M phosphate-sodium chloride buffer (pH 7.4) and centrifuged at 1,000× g for 10 minutes. The supernatant was kept at -80° C. for storage.
The supernatant was diluted with a 2-fold amount of the same phosphate-sodium chloride buffer as above, and 0.45 ml of the dilution was combined with 30 μl of ethanol per se (vehicle) or ethanol solution containing a test compound, followed by incubation at 37° C. for 30 minutes. The reaction was terminated by addition of a solution of 0.1% butylhydroxytoluene (BHT) (20 μl) in 25% metaphosphoric acid (125 μl). After deproteinization, the peroxidized lipids in the supernatant were measured by the thiobarbituric acid (TBA) method according to the description by Ohkawa et al.: in Anal. Biochem., Vol. 95, page 351 (1979). The amount of peroxidized lipids produced was compared with that in the vehicle applied group and expressed in % control.

HMG-CoA reductase = molecular target: T1, HMG-CoA reductase (Rattus norvegicus, UniProt P51639); assay: HMG-CoA reductase inhibitory activity (rat liver microsome); format: biochemical, rat (Sprague-Dawley); conditions: [3-^14 C]HMG-CoA, 37° C., 30 minutes, read-out: HMG-CoA reductase inhibitory activity IC50 (50% inhibition concentration)
T1 construct: Liver microsomes was prepared by using Sprague-Dawley rats; from tissue; host or cells: liver microsomes of Sprague-Dawley rats fed 2% cholestyramine diet
T1 sequence (P51639 1-887): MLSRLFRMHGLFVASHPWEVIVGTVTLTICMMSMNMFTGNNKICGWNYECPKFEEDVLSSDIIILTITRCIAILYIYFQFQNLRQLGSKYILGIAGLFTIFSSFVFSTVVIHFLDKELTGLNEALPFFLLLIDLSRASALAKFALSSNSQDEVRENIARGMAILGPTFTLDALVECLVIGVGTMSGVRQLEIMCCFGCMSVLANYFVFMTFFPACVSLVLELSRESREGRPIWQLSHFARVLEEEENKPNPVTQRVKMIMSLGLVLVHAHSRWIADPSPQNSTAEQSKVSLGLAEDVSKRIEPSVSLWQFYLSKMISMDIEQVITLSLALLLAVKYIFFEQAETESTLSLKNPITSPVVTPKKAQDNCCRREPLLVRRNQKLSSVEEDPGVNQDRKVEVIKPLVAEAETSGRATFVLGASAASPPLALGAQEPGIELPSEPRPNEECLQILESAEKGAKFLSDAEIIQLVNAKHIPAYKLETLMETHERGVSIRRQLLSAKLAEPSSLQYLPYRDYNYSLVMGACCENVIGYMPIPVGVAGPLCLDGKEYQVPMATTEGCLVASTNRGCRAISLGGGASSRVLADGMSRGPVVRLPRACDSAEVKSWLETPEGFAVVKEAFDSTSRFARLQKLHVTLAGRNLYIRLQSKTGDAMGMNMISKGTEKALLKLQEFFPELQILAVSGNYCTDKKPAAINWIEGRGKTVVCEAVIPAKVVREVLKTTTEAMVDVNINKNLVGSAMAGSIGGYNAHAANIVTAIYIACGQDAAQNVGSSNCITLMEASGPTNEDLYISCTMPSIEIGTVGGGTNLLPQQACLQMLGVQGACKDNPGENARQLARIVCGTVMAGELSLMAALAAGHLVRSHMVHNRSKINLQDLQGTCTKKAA
Description: [HMG-CoA reductase inhibitory activity]
(1a) Preparation of rat liver microsome
Liver microsomes was prepared by using Sprague-Dawley rats which freely take a general diet containing 2% cholestyramine and water for 2 weeks according to the report of Kuroda et al (Biochim. Biophys. Acta., 486, page 70, 1977). The microsome fraction obtained by centrifuging at 105000× g was washed with a solution containing 15 mM nicotinamide and 2 mM magnesium chloride (in 100 mM potassium phosphate buffer solution, pH 7.4) once. Then, thereto was added equal parts of the buffer solution containing nicotinamide and magnesium chloride to the weight of used liver. The mixture was homogenized, cooled to -80° C., and preserved.
(1b) Measurement of HMG-CoA reductase inhibitory activity
At 0° C., 100 μl of rat liver microsome preserved at -80° C. was melted and diluted with 0.7 ml of cool potassium phosphate buffer (100 mM, pH 7.4). Thereto was added 0.8 ml of 50 mM EDTA solution (the above-mentioned potassium phosphate buffer solution) and 0.4 ml of 100 mM dithiothreitol solution (the above-mentioned potassium phosphate buffer solution) and the mixture was maintained at 0° C. To 1.675 ml of the microsome solution was added 670 μl of 25 mM NADPH solution (the above-mentioned potassium phosphate buffer solution). […] By means of a scintillation counter, specific activity was measured.

[2] = concentration of test compound 0.01 mM
[3] = concentration of test compound 0.1 mM

## CC[C@H](C)C(=O)O[C@H]1CCC=C2C=C[C@H](C)[C@H](CC[C@@H]3C[C@@H](O)CC(=O)O3)[C@H]21 [Mevastatin]
Cholesterol synthesis
  inhibit cholesterol synthesis: inhibit cholesterol synthesis

## CC(C)(Sc1cc(C(C)(C)C)c(O)c(C(C)(C)C)c1)Sc1cc(C(C)(C)C)c(O)c(C(C)(C)C)c1 [Probucol]
[1]; [2]
  Inhibitory rate (% control): 27.8 % control
[1]; [3]
  Inhibitory rate (% control): 58.3 % control

## CCC(C)(C)C(=O)O[C@H]1C[C@@H](C)C=C2C=C[C@H](C)[C@H](CC[C@@H]3C[C@@H](O)CC(=O)O3)[C@H]21 [Simarastatin]
Cholesterol synthesis
  inhibit cholesterol synthesis: inhibit cholesterol synthesis

## CC[C@H](C)C(=O)O[C@H]1C[C@@H](C)C=C2C=C[C@H](C)[C@H](CC[C@@H]3C[C@@H](O)CC(=O)O3)[C@H]21 [Lovastatin]
Cholesterol synthesis
  inhibit cholesterol synthesis: inhibit cholesterol synthesis
HMG-CoA reductase
  pIC50: 7.62

## CC(C)(C)c1cc(SC[C@@H](O)C[C@@H](O)CC(=O)O)cc(C(C)(C)C)c1O [Compound No. 3, Sodium (3R,5S)-6-[(3,5-di-tert-butyl-4-hydroxyphenyl)thio]-3,5-dihydroxyhexanoate]
[1]; [2]
  Inhibitory rate (% control): 35.7 % control
[1]; [3]
  Inhibitory rate (% control): 94.9 % control
HMG-CoA reductase
  pIC50: 4.27

## CC[C@H](C)C(=O)O[C@H]1C[C@H](O)C=C2C=C[C@H](C)[C@H](CC[C@@H](O)C[C@@H](O)CC(=O)O)[C@H]21 [Pravastatin]
Cholesterol synthesis
  inhibit cholesterol synthesis: inhibit cholesterol synthesis
